Data published in the NIST ThermoML archive (doi:10.1016/j.fluid.2008.03.012).

Test: excess molar enthalpy (molar enthalpy of mixing); xn = mol fraction of the nth substance listed
Conditions: Liquid, Flow calorimetry

CCOC(=O)CC(C)=O [ethyl 3-oxobutanoate] + CCO
excess molar enthalpy [kcal/mol]
Conditions	298.15 K	313.15 K	328.15 K
100 kPa, x1 = 0.0999	0.178	0.202	0.217
100 kPa, x1 = 0.1997	0.286	0.326	0.359
100 kPa, x1 = 0.2994	0.357	0.403	0.445
100 kPa, x1 = 0.3495	0.38	0.43	0.473
100 kPa, x1 = 0.3999	0.396	0.448	0.493
100 kPa, x1 = 0.4501	0.406	0.457	0.502
100 kPa, x1 = 0.4995	0.408	0.459	0.502
100 kPa, x1 = 0.5492	0.405	0.455	0.494
100 kPa, x1 = 0.6008	0.395	0.439	0.476
100 kPa, x1 = 0.6501	0.377	0.418	0.45
100 kPa, x1 = 0.7008	0.353	0.388	0.415
100 kPa, x1 = 0.8006	0.275	0.296	0.313
100 kPa, x1 = 0.9002	0.157	0.168	0.17
10000 kPa, x1 = 0.0998	0.173	0.202	0.215
10000 kPa, x1 = 0.1995	0.281	0.325	0.351
10000 kPa, x1 = 0.2992	0.349	0.402	0.436
10000 kPa, x1 = 0.3493	0.371	0.429	0.463
10000 kPa, x1 = 0.3996	0.387	0.447	0.481
10000 kPa, x1 = 0.4498	0.396	0.455	0.489
10000 kPa, x1 = 0.4992	0.399	0.458	0.489
10000 kPa, x1 = 0.5489	0.396	0.453	0.481
10000 kPa, x1 = 0.6005	0.385	0.438	0.464
10000 kPa, x1 = 0.6499	0.368	0.417	0.437
10000 kPa, x1 = 0.7005	0.343	0.387	0.403
10000 kPa, x1 = 0.8004	0.268	0.295	0.302
10000 kPa, x1 = 0.9001	0.15	0.167	0.168

CCOC(=O)CC(C)=O [ethyl 3-oxobutanoate] + CO
excess molar enthalpy [kcal/mol]
Conditions	298.15 K	313.15 K	328.15 K
100 kPa, x1 = 0.0998	0.12	0.135	0.146
100 kPa, x1 = 0.2002	0.202	0.227	0.244
100 kPa, x1 = 0.2994	0.256	0.285	0.309
100 kPa, x1 = 0.3505	0.274	0.305	0.332
100 kPa, x1 = 0.3995	0.287	0.318	0.346
100 kPa, x1 = 0.4495	0.295	0.326	0.354
100 kPa, x1 = 0.4998	0.298	0.33	0.357
100 kPa, x1 = 0.5495	0.296	0.326	0.352
100 kPa, x1 = 0.5997	0.288	0.318	0.341
100 kPa, x1 = 0.65	0.275	0.304	0.323
100 kPa, x1 = 0.6995	0.257	0.279	0.299
100 kPa, x1 = 0.7994	0.199	0.211	0.224
100 kPa, x1 = 0.8982	0.111	0.115	0.12
10000 kPa, x1 = 0.0996	0.116	0.133	0.145
10000 kPa, x1 = 0.1999	0.197	0.225	0.244
10000 kPa, x1 = 0.299	0.248	0.283	0.309
10000 kPa, x1 = 0.35	0.265	0.303	0.331
10000 kPa, x1 = 0.399	0.276	0.317	0.346
10000 kPa, x1 = 0.449	0.283	0.325	0.354
10000 kPa, x1 = 0.4993	0.286	0.329	0.356
10000 kPa, x1 = 0.5489	0.283	0.324	0.352
10000 kPa, x1 = 0.5992	0.274	0.317	0.341
10000 kPa, x1 = 0.6495	0.261	0.301	0.322
10000 kPa, x1 = 0.699	0.242	0.273	0.297
10000 kPa, x1 = 0.799	0.182	0.209	0.222
10000 kPa, x1 = 0.898	0.0986	0.113	0.118
